Results on two molecules are retold here after patent publication US20100247491A1, “Potentiation of Stem Cell Homing and Treatment of Organ Dysfunction or Organ Failure” (priority 2007, published 2010).

One experiment concerns MSCs. Put plainly: MSC migration towards SDF-1 in a transwell culture system. The format is cell-based, Fisher 344 rats. The conditions noted are these: pre-incubation of MSCs with the agent, FIG. 7. The source says: AMD 3100 is a non-peptide antagonist of CXCR4 and Diprotin A (Ile-Pro-Ile, Peptides International, Louisville, Ky.) is a commonly used example of a CD26 inhibitor. […] Thus, the invention provides for the use of a CD26 inhibitor for the treatment of renal organ dysfunction (i.e., damage or injury), particularly, in combination with the use of MSCs. For example, it is believed that inhibition of SDF-1 inactivation will increase the homing of administered MSCs to an injured kidney and potentiate renal repair.
Bone marrow-derived MSCs from Fisher 344 rats were used for in vitro experiments. […] In addition, cultured MSCs express functional CD26 and can effectively inactivate SDF-1. […] As a result of the in vitro data, it is reasoned that inhibiting CD26 will augment the SDF-1-CXCR4 mediated chemotactic activity of MSCs in vivo. Thus, the invention relates to pre-treatment or co-administration of MSCs with a CD26 inhibitor to augment the homing and renal protective functions of MSCs administered to a subject to treat a disease involving organ failure or organ dysfunction.

The subject of another experiment is Sca-1+lin-donor cells. The conditions noted are these: donor cells treated with 5 mM Diprotin A for 15 minutes before transplant; FIG. 4, Christopherson II et al. (2004); cited from earlier work.
The test system of another experiment is rats with I/R ARF. Briefly: I/R ARF rat model, CD26 inhibitor given before MSCs (Example II). The conditions noted are these: MSCs following Diprotin A. The format is in vivo. From the text:
All procedures involving animals are approved by the respective Institutional Animal Care and Use Committees of the University of Utah, Veterans Affairs Medical Center (Salt Lake City, Utah), Indiana University (Indianapolis, Ind.), and the University of Hamburg (Hamburg, Germany). Animals are housed at a constant temperature and humidity, with a 12:12-h light-dark cycle, and have unrestricted access to a standard diet and tap water. Adult male Sprague-Dawley (SD) and Fisher 344 (F344) rats weighing 200-300 g are preferably used (Charles River, Wilmington, Mass.).
I/R ARF is induced in isoflurane-anesthetized animals, and rectal temperature is maintained at 37° C. After a midabdominal laparatomy, kidneys are exposed and renal pedicles are clamped with atraumatic vascular clamps for about 40 min. […]
Quantification of cell numbers. CFDA-labeled green fluorescing cells are examined and quantified in kidneys at 2, 24, 36, 48, 60, and/or 72 h after ARF and cell infusions. Nuclei are stained with either Hoechst 33342 or propidium iodide, and nuclei are counted in at least three high-power fields (HPF) per section based on a calibrated confocal micrometer measurement bar. After this, total cell numbers of the studied tissue sections are calculated based on the number of nuclei and surface area of the section.
Renal function may be assessed by serum creatinine and/or blood urea nitrogen levels. […]

Consider `c1cc(CN2CCCNCCNCCCNCC2)ccc1CN1CCCNCCNCCCNCC1` [AMD 3100], for which, in the experiment on MSCs, the “MSC migration towards SDF-1” value is “decreased”.
In the case of H-Ile-Pro-Ile-OH [Diprotin A], the “homing of HSCs from the circulation to bone” value in the experiment with Sca-1+lin-donor cells is reported as “can increase homing of HSCs”. In the experiment with rats with I/R ARF (by at least days 2 and/or 3, relative to MSC only treated animals), the “renal function (serum creatinine and/or blood urea nitrogen)” value was “significantly improved renal function”. The “migration of MSCs to the kidney” value in the experiment on rats with I/R ARF (relative to MSC only treated animals) was “increased migration of MSCs to the kidney”. In the experiment on MSCs, the “MSC migration towards SDF-1” value is “significantly increased”.
